Patent US4451465A, “Anti-obesity agents” (John Wyeth & Brother Ltd., priority 1981, dated 1984)

Tests used:
[1] = system: noradrenaline (NA) uptake into brain slices; experiment: inhibition of noradrenaline uptake in brain slices; format: cell-based, rat (adult male Sprague-Dawley); settings: mean ± S.E. mean of 6 experiments; rat brain slices
Method: (§1) In one procedure for testing for potential thermogenic activity the compounds are tested for their ability to inhibit noradrenaline uptake in rat brown adipose tissue (BAT). Compounds that have a specific thermogenic effect without having undesirable central effects should inhibit BAT noradrenaline (NA) uptake at lower concentrations than those required to inhibit corresponding NA uptake in the brain. In another procedure for testing for thermogenic activity the compounds are investigated for their effect on the activity of sodium potassium activated, magnesium dependent adenosinetriphosphatase (Na^+, K^+ -ATPase) in rat BAT fractions.
(§2) In the above mentioned procedures adult male Sprague-Dawley rats were used. Homogenates of BAT were prepared by homogenising interscapular BAT. Microsomal material was separated by centrifugation of the BAT homogenate. Measurement of NA uptake into BAT and brain slices was carried out using radiolabelled noradrenaline (based upon the procedure of Sugden, Br. J. Pharmac., 1974,51, 467-469). Adenosinetriphosphate activities were measured by monitoring the release of inorganic phosphate from ATP. Na^+, K^+ -ATPase was calculated as the difference between total and sodium ATPase.

[2] = molecular target: BAT microsomal Na^+, K^+ -ATPase; experiment: stimulation of Na^+, K^+ -ATPase in BAT microsomal fraction; format: biochemical, rat (adult male Sprague-Dawley)
Method: as §1, §2

[3] = molecular target: BAT homogenate Na^+, K^+ -ATPase; experiment: stimulation of Na^+, K^+ -ATPase in BAT homogenate; format: biochemical, rat (adult male Sprague-Dawley); settings: for IC50: homogenate, read-out: IC50 for stimulation (to 50% maximum) of BAT Na^+,K-ATP-ase, homogenate
Method: as §1, §2

[4] = system: noradrenaline (NA) uptake in rat brown adipose tissue (BAT); experiment: inhibition of noradrenaline uptake in BAT; format: cell-based, rat (adult male Sprague-Dawley); settings: for IC50: mean ± S.E. mean of 6 experiments, rat BAT
Method: In one procedure for testing for potential thermogenic activity the compounds are tested for their ability to inhibit noradrenaline uptake in rat brown adipose tissue (BAT). […] In another procedure for testing for thermogenic activity the compounds are investigated for their effect on the activity of sodium potassium activated, magnesium dependent adenosinetriphosphatase (Na^+, K^+ -ATPase) in rat BAT fractions.
as §2, with “Measurement of NA uptake into BAT and brain slices was carried out using radiolabelled noradrenaline (based upon the procedure of Sugden, Br. J. Pharmac., 1974,51, 467-469).” left out

[5] = system: male rats; experiment: chronic (28 day) administration to male rats: body weight and food intake; format: in vivo, rat; settings: 28 days
From the text: The anti-obesity activity of (±)-2,3,4,10-tetrahydro-3,3-dimethyl-10-phenylpyrimido[1,2-a]indol-10-ol has been confirmed by chronic (28 day) administration to male rats. The animals were fed on a standard pelleted diet and the active agent was introduced into the water supply. Body weight, food and water intake and behaviour were monitored over the next four weeks.

[6] = system: brown adipose tissue; experiment: thermogenic activity (pharmacological testing); parameters: species or system rat; settings: compared with corresponding (+)-enantiomers
Method: as §1, §2

[7] = system: rats; experiment: signs of CNS arousal in rats; format: in vivo, rat; settings: dosages as high as 30 mg/kg p.o.
From the text: (§3) It is also known that there is a good correlation between BAT homogenate Na^+, K^+ -ATPase activity and the resting metabolic rate (see, for example, Rothwell, Stock and Wyllie, Biochem. Pharmacol., 1981, 30, 1709-1712) and those compounds, such as the agents of the present invention that activate BAT Na^+ K^+ -ATPase activity are indicated as useful as thermogenic agents and can be used in the treatment of obesity.

[8] = system: rats; experiment: resting metabolic rate (resting oxygen consumption) in rats; format: in vivo, rat
From the text: as §3

Compound	IC50 [1]	IC50 for stimulation (to 50% maximum) of BAT Na^+,K-ATP-ase, microsomal fraction [2]	IC50 [3]	IC50 [4]	weight gain compared to controls ([5]; 3.5 mg/kg/day in water supply)	weight gain compared to controls ([5]; 6.5 mg/kg/day in water supply)	body weight ([5]; 10.8 mg/kg/day in water supply)	food intake ([5]; 3.5, 6.5 and 10.8 mg/kg/day in water supply)	activity as thermogenic agents, (-) versus (+)-enantiomers [6]	direct stimulation of BAT microsomal Na^+, K^+ -ATPase ([2]; BAT microsomal)	signs of CNS arousal [7]	stimulation of homogenate Na^+, K^+ -ATPase ([3]; BAT homogenate)	resting metabolic rate (resting oxygen consumption) [8]	potency in inhibiting NA uptake into BAT versus brain slices ([4]; BAT compared with brain slices)
CC1(C)CN=C2N(C1)c1ccccc1C2(O)c1ccccc1 (racemic) [(±), (±)-2,3,4,10-tetrahydro-3,3-dimethyl-10-phenylpyrimido[1,2-a]indol-10-ol]	3400 nM	none at 10^-4	43 nM	28 nM	reduced weight gain	reduced weight gain	weight loss	no significant effect on food intake						
CC1(C)CN=C2N(C1)c1ccccc1C2(O)c1ccccc1 (single isomer, unassigned; (-)) [(-), (-)-2,3,4,10-Tetrahydro-3,3-dimethyl-10-phenylpyrimido[1,2-a]indol-10-ol]	2400 nM	none at 10^-4	32 nM	18 nM					more active, as thermogenic agents, than the corresponding (+)-enantiomers					
CC1(C)CN=C2N(C1)c1ccccc1C2(O)c1ccccc1 (stereo not drawn) [compound of the invention, 2,3,4,10-tetrahydro-3,3-dimethyl-10-phenylpyrimido[1,2-a]indol-10-ol]										did not directly stimulate	did not produce signs of CNS arousal	significant stimulation	increases the resting metabolic rate	considerably more potent in inhibiting NA uptake into BAT than into brain slices
